{"source": "paper PMC12627933", "about": "“A First-In-Human Study of the SUMOylation Inhibitor Subasumstat in Patients with Advanced/Metastatic Solid Tumors or Relapsed/Refractory Hematologic Malignancies” (Cancer Research Communications, 2025)", "experiment": "Safety: treatment-emergent adverse events (NCI CTCAE v5.0; CRS per ASTCT), phase I/II study NCT03648372", "type": "in vivo", "details": "Phase I (n = 84)", "description": "This study comprised two parts: a phase I dose escalation and a phase II dose expansion (Fig. 1). In the dose-escalation phase, patients were enrolled to receive subasumstat intravenously as a 1-hour (±10 minutes) infusion on days 1, 4, 8, and 11 of a 21-day cycle (biweekly schedule). […] Dose escalation was based on cohort with an adaptive design using Bayesian logistic regression modeling with overdose control. The starting dose of subasumstat was based on Good Laboratory Practice animal toxicity studies and supported by the estimation of a minimum anticipated biologically effective level. A detailed description of dose-limiting toxicities (DLT) is presented in the Supplementary Methods.\nThe phase II dose-expansion portion enrolled patients to receive the recommended phase II dose (RP2D) determined in phase I, with each cohort assessed separately using an adaptive two-stage design for a single proportion (see Supplementary Methods). For stage 1, each cohort was analyzed when a prespecified number of patients were enrolled and had the potential to have at least one posttreatment scan [i.e., after the first disease assessment, 2 months from cycle 1 day 1 (C1D1)]. If the prespecified minimal response rate was not achieved in the first stage for a given cohort, that cohort would be closed to enrollment. […] The final analysis of the primary endpoints for each cohort would take place when all ongoing patients had the opportunity to complete the 6-month disease assessment. Across both phases, patients received subasumstat for up to 1 year or until confirmed disease progression, unacceptable toxicity, if any withdrawal criterion from the study was met, or if discontinuation of subasumstat occurred.\nThe occurrence of DLTs was assessed during cycle 1 (DLTs are described in the Supplementary Methods). Treatment-emergent adverse events (TEAE) were graded according to NCI Common Terminology Criteria for Adverse Events version 5.0, except for cytokine release syndrome (CRS), which was graded according to the American Society for Transplantation and Cellular Therapy Consensus Grading for CRS ([20]).\nIt was anticipated that approximately 70 DLT-evaluable patients would be enrolled for dose escalation. The safety analysis set included all patients who received at least one dose, even if incomplete, of subasumstat. […] The overall response rate (ORR) was defined as the proportion of patients who achieved complete response and partial response (PR) during the study. The disease control rate (DCR) was defined as the proportion of patients who achieved […] as per RECIST v1.1 for solid tumors or Lugano classification for lymphomas. […] Progression-free survival was summarized descriptively using the Kaplan–Meier method.", "data": [{"smiles": "Cc1sc(C(=O)c2cncnc2N[C@@H]2C[C@H](COS(N)(=O)=O)[C@@H](O)C2)cc1[C@@H]1NCCc2ccc(Cl)cc21", "note": "[subasumstat]", "values": [{"measurement": "AESI (adverse event of special interest)", "result": "9 (10.7) n (%)"}, {"measurement": "AESI related to subasumstat", "result": "9 (10.7) n (%)"}, {"measurement": "AESI: CRS", "result": "9 (10.7) n (%)"}, {"measurement": "Grade ≥3 TEAE: Abdominal pain", "result": "4 (4.8) n (%)"}, {"measurement": "Grade ≥3 TEAE: Acute kidney injury", "result": "2 (2.4) n (%)"}, {"measurement": "Grade ≥3 TEAE: Anemia", "result": "9 (10.7) n (%)"}, {"measurement": "Grade ≥3 TEAE: Aspartate aminotransferase increased", "result": "2 (2.4) n (%)"}, {"measurement": "Grade ≥3 TEAE: Blood bilirubin increased", "result": "2 (2.4) n (%)"}, {"measurement": "Grade ≥3 TEAE: Dyspnea", "result": "4 (4.8) n (%)"}, {"measurement": "Grade ≥3 TEAE: Fatigue", "result": "5 (6.0) n (%)"}, {"measurement": "Grade ≥3 TEAE: Hyperbilirubinemia", "result": "0 n (%)"}, {"measurement": "Grade ≥3 TEAE: Hypertension", "result": "1 (1.2) n (%)"}, {"measurement": "Grade ≥3 TEAE: Hypokalemia", "result": "7 (8.3) n (%)"}, {"measurement": "Grade ≥3 TEAE: Hypomagnesemia", "result": "2 (2.4) n (%)"}, {"measurement": "Grade ≥3 TEAE: Hypophosphatemia", "result": "2 (2.4) n (%)"}, {"measurement": "Grade ≥3 TEAE: Lymphocyte count decreased", "result": "5 (6.0) n (%)"}, {"measurement": "Grade ≥3 TEAE: Lymphopenia", "result": "1 (1.2) n (%)"}, {"measurement": "Grade ≥3 TEAE: Muscular weakness", "result": "0 n (%)"}, {"measurement": "Grade ≥3 TEAE: Nausea", "result": "2 (2.4) n (%)"}, {"measurement": "Grade ≥3 TEAE: Neutropenia", "result": "0 n (%)"}, {"measurement": "Grade ≥3 TEAE: Platelet count increased", "result": "1 (1.2) n (%)"}, {"measurement": "Grade ≥3 TEAE: Pleural effusion", "result": "2 (2.4) n (%)"}, {"measurement": "Grade ≥3 TEAE: Pneumonia", "result": "1 (1.2) n (%)"}, {"measurement": "Grade ≥3 TEAE: Pneumonitis", "result": "2 (2.4) n (%)"}, {"measurement": "Grade ≥3 TEAE: Pyrexia", "result": "2 (2.4) n (%)"}, {"measurement": "Grade ≥3 TEAE: Small intestinal obstruction", "result": "4 (4.8) n (%)"}, {"measurement": "Grade ≥3 TEAE: Thrombocytopenia", "result": "1 (1.2) n (%)"}, {"measurement": "Grade ≥3 TEAE: Vomiting", "result": "4 (4.8) n (%)"}, {"measurement": "Grade ≥3 TEAEs", "result": "48 (57.1) n (%)"}, {"measurement": "Grade ≥3 TEAEs related to subasumstat", "result": "18 (21.4) n (%)"}, {"measurement": "Grade ≥3 subasumstat-related TEAE: Anemia", "result": "1 (1.2) n (%)"}, {"measurement": "Grade ≥3 subasumstat-related TEAE: Aspartate aminotransferase increased", "result": "2 (2.4) n (%)"}, {"measurement": "Grade ≥3 subasumstat-related TEAE: Hypokalemia", "result": "2 (2.4) n (%)"}, {"measurement": "Grade ≥3 subasumstat-related TEAE: Lymphocyte count decreased", "result": "4 (4.8) n (%)"}, {"measurement": "Grade ≥3 subasumstat-related TEAE: Muscular weakness", "result": "0 n (%)"}, {"measurement": "Grade ≥3 subasumstat-related TEAE: Neutropenia", "result": "0 n (%)"}, {"measurement": "Grade ≥3 subasumstat-related TEAE: Platelet count increased", "result": "1 (1.2) n (%)"}, {"measurement": "Grade ≥3 subasumstat-related TEAE: Pneumonitis", "result": "2 (2.4) n (%)"}, {"measurement": "Grade ≥3 subasumstat-related TEAE: Thrombocytopenia", "result": "1 (1.2) n (%)"}, {"measurement": "On-study deaths", "result": "10 (11.9) n (%)"}, {"measurement": "Patients with at least one grade ≥3 TEAE", "result": "48 (57.1) n (%)"}, {"measurement": "Patients with at least one grade ≥3 subasumstat-related TEAE", "result": "18 (21.4) n (%)"}, {"measurement": "Serious adverse events", "result": "37 (44.0) n (%)"}, {"measurement": "Serious adverse events related to subasumstat", "result": "7 (8.3) n (%)"}, {"measurement": "Subasumstat-related TEAE: Anemia", "result": "4 (4.8) n (%)"}, {"measurement": "Subasumstat-related TEAE: CRS", "result": "9 (10.7) n (%)"}, {"measurement": "Subasumstat-related TEAE: Chills", "result": "17 (20.2) n (%)"}, {"measurement": "Subasumstat-related TEAE: Decreased appetite", "result": "10 (11.9) n (%)"}, {"measurement": "Subasumstat-related TEAE: Diarrhea", "result": "15 (17.9) n (%)"}, {"measurement": "Subasumstat-related TEAE: Dyspnea", "result": "4 (4.8) n (%)"}, {"measurement": "Subasumstat-related TEAE: Fatigue", "result": "27 (32.1) n (%)"}, {"measurement": "Subasumstat-related TEAE: Headache", "result": "21 (25.0) n (%)"}, {"measurement": "Subasumstat-related TEAE: Hypokalemia", "result": "7 (8.3) n (%)"}, {"measurement": "Subasumstat-related TEAE: IRR", "result": "5 (6.0) n (%)"}, {"measurement": "Subasumstat-related TEAE: Myalgia", "result": "6 (7.1) n (%)"}, {"measurement": "Subasumstat-related TEAE: Nausea", "result": "29 (34.5) n (%)"}, {"measurement": "Subasumstat-related TEAE: Pyrexia", "result": "23 (27.4) n (%)"}, {"measurement": "Subasumstat-related TEAE: Vomiting", "result": "13 (15.5) n (%)"}, {"measurement": "TEAE: Abdominal distension", "result": "11 (13.1) n (%)"}, {"measurement": "TEAE: Abdominal pain", "result": "17 (20.2) n (%)"}, {"measurement": "TEAE: Anemia", "result": "12 (14.3) n (%)"}, {"measurement": "TEAE: Arthralgia", "result": "12 (14.3) n (%)"}, {"measurement": "TEAE: Back pain", "result": "12 (14.3) n (%)"}, {"measurement": "TEAE: CRS", "result": "9 (10.7) n (%)"}, {"measurement": "TEAE: Chills", "result": "20 (23.8) n (%)"}, {"measurement": "TEAE: Constipation", "result": "14 (16.7) n (%)"}, {"measurement": "TEAE: Decreased appetite", "result": "26 (31.0) n (%)"}, {"measurement": "TEAE: Dehydration", "result": "10 (11.9) n (%)"}, {"measurement": "TEAE: Diarrhea", "result": "29 (34.5) n (%)"}]}]}
